Data from US9669141B2, “Tissue-engineered pumps and valves and uses thereof” (President and Fellows of Harvard College, priority 2012, dated 2017).

system: Jellyfish swimming muscle; experiment: Excitation-contraction uncoupling of jellyfish swimming muscle during optical mapping; format: in vivo, Aurelia aurita; settings: juvenile jellyfish, artificial seawater at room temperature
Method: PMDS-coated glass cover slips with cardiomyocyte monolayers of medusoid muscle architecture were assayed in a custom-made optical mapping system (FIGS. 7i-o) by adapting previously described protocols. Briefly, the cultures were incubated for 5 minutes in 8 μM RH-237 voltage-sensitive dye (Iex/Iem in DMSO=˜550/˜800 nm; Molecular Probes) in Tyrode's solution, then washed with Tyrode's solution. During recording, the tissue was placed in Tyrode's solution containing 10 μM excitation-contraction uncoupler blebbistatin, thereby minimizing motion artifacts. All solutions were maintained at 35-37° C. A platinum point electrode connected to a Grass S48 stimulator (Grass technologies, West Warwick, R.I. 02893, USA) was placed ˜1 mm above the culture surface (FIG. 7i) and used to apply point stimuli (2 Hz, 5-8 V, 10-ms duration). Imaging was performed using an inverted microscope (Zeiss Axiovert 200; Carl Zeiss MicroImaging, LLC Thornwood, N.Y. 10594, USA) equipped with a 40× Plan-Neofluar (1.3 NA) oil-immersion objective, a fluorescence light source (Hamamatsu L2422 100 Watt Mercury-Xenon lamp) and a filter cube appropriate for RH237 imaging (Zeiss EX BP530-585, DC FT600, EM LP615). Fluorescence shutter opening and closing was synchronized with the pacing stimulus. Membrane voltage signals were optically recorded at 5 Hz using a honeycomb of 124 independent optical fibers, each monitoring an approximately circular field of view of 25 μm in diameter (FIGS. 6j and 6k) and each connected to a discrete photodiode transimpedance amplifier. The outputs of the photodiode amplifiers were digitized by a bank of differential amplifiers and DAQ cards (National Instruments Corporation, Austin, Tex. 78759, USA). Digitized signals were processed using custom-made software implemented in MATLAB (MathWorks, Natick, Mass. 01760, USA) (FIG. 7l). Activation times, defined as the time point of maximum positive slope of the action potential, served to calculate isochronal maps of activation and velocity vector fields across the field of view monitored by the LED array (FIGS. 7m and 7o).
Optical mapping in jellyfish (FIG. 7a-7h) was performed as in medusoid coverslips except for the following differences. All procedures were carried out in artificial seawater at room temperature (KENT Marine Sea Salt, KENT Marine Sea, 5401 West Oakwood Park Drive, Franklin, Wis. 53132). […] Thus, to constrain movement, an additional cover slip was placed on top of the jellyfish using vacuum grease as a spacer. […] Subsequently, activation times, isochronal maps and velocity vector fields were calculated as above (FIGS. 7e-7h).

SMILES | sensitivity of jellyfish swimming muscle to excitation-contraction uncoupling agents
CC(=O)C(C)=NO [2,3-butanedione monoxime (BDM), 2,3-butanedione monoxime] | insensitive
Cc1ccc2c(c1)C(=O)C1(O)CCN(c3ccccc3)C1=N2 (stereo not shown) [blebbistatin] | insensitive
C=C1[C@@H](C)[C@H]2[C@H](Cc3ccccc3)NC(=O)[C@]23[C@H](OC(C)=O)/C=C/[C@@](C)(O)C(=O)[C@@H](C)C/C=C/[C@H]3[C@@H]1O [cytochalasin D] | insensitive
O=C1CN(/N=C/c2ccc(-c3ccc([N+](=O)[O-])cc3)o2)C(O)=N1 [dantrolene sodium] | insensitive
